Earlier results as cited in paper PMC9405102, “Targeted Modification and Structure-Activity Study of GL-29, an Analogue of the Antimicrobial Peptide Palustrin-2ISb” (Antibiotics, 2022).

Key:
[1] = system: Gram-positive and Gram-negative bacteria; set-up: method as in PMID 21193000; conditions: cited from earlier work
[2] = system: methicillin-resistant S. aureus (MRSA); set-up: method as in PMID 21911019; conditions: cited from earlier work
[3] = system: Staphylococcus aureus (S. aureus); set-up: method as in PMID 21911019; conditions: cited from earlier work
C. albicans = system: C. albicans; set-up: method as in PMID 21911019; conditions: at 100 μM; cited from earlier work
[4] = system: Escherichia coli (E. coli); set-up: method as in PMID 21911019; conditions: cited from earlier work

| Sequence | activity against Gram-positive and Gram-negative bacteria [1] | MIC [2] | MIC [3] | activity against C. albicans (C. albicans) | MIC [4] |
| --- | --- | --- | --- | --- | --- |
| GKKLFVNVLDKIRCKVAGGC [palustrin-2ISb-des-C7-des-N9, literature analogue with one helical part of Pa2ISb-des-C7] | little activity | – | – | – | – |
| GLWNSIKIAGKKLFVNVLDKIRCKVAGGCKTSPDVE [palustrin-2ISb, parent antimicrobial peptide of 36 residues isolated from Odorrana ishikawae] | – | 100 µM | 6.3 µM | no activity | 6.3 µM |
